Values after ≈ are worked out from the molar mass of the structure shown.
What was measured:
J774 macrophages = experiment: Alamar Blue macrophage J774 viability assay; type: cell-based; conditions: 72 hours culture with compound, Alamar Blue read-out
Procedure: (§1) Initial screening of candidate compounds was performed using in vitro assays to determine potency, metabolic stability and solubility in biologically relevant fluids. Potency was assessed using a viability assay based on the survival of the J774 macrophage cell line. Macrophages are closely related to osteoclasts and have been used previously as a model system for osteoclast survival (see, e.g., Luckman et al., 1998). Like osteoclasts, J774 macrophages are dependent on continued NFκB activation for survival, thereby providing a valuable screen for compounds with anti-inflammatory activity. Metabolic stability was measured by determining the rate of disappearance of compound in the presence of human liver microsomal preparations, as quantified by LC-MS/MS. Solubility was measured by equilibration of the compound in fasted state simulated intestinal fluid (FaSSIF) and quantified by HPLC.
In vitro potency as anti-inflammatory agents was determined for a number of APSAP compounds by incubation with J774 macrophages and subsequent determination of cell viability.
J774 cells were plated at 10^4 cells per well in 100 μL αMEM (α Modified Eagle Medium) in 96-well plates and grown overnight. The next day, test compounds were added to the cultures, and cultures were continued for another 72 hours. At the end of the culture period, cell survival was determined using an Alamar Blue assay as previously described (see, e.g., Nociari et al., 1998).
Alamar Blue is an oxidation-reduction sensitive indicator. The dye itself is in the oxidised state, which is blue and non-fluorescent. The dye can accept electrons from reducing species, such as NADPH and FADH, to form a reduced dye species, which is red and fluorescent. Thus the transformation from oxidised form to reduced form can be measured by fluorimetric or colourimetric means. For fluorescence measurements, 530-560 nm excitation and 590 nm emission wavelengths are typically used. For colourimetric measurements, absorbance at 570 nm (reduced form) and 600 nm (oxidised form) is typically measured. A simple calculation is performed to determine the relative quantities of the two species.
A high ratio of the reducing species, NADPH and FADH, to the corresponding oxidised species, NADP and FAD, is an indicator that cells are proliferating and viable. A low ratio indicates cells that are quiescent or non-viable.
Briefly, Alamar Blue (Biosource International) was added undiluted to each well (1:10 v/v, 10 μL). The plate was incubated at 37° C. for 3-4 hours and the fluorescence was measured at 590 nm, with a 25 nm bandwidth. A high reading indicated cells with normal viability, and a low reading indicated cells that have been damaged and are no longer proliferating normally. The controls gave a high fluorescence reading, indicating a high number of live, healthy cells. A potent test compound gave a low fluorescence reading.
The average results for each test compound (n=5) were expressed as a percent (%) of the average control value.
Addition of Compounds. All of the compounds studied were made up as 100 mM solutions in DMSO. These stock solutions were then diluted 1000-10000× in culture medium (αMEM). From these 100 μM or 10 μM solutions, convenient quantities (3-33 μL) were added directly to the wells so as to give the desired final compound concentration.

[1] = Thermodynamic aqueous solubility in fasted state simulated intestinal fluid (FaSSIF); type: physicochemical; conditions: 25° C., 24 hours equilibration, HPLC; for solubility at 24 h: pH 6.5, thermodynamic from solid
Procedure: as §1
Thermodynamic aqueous solubility was measured by equilibration of a number of APSAP compounds, in the solid state, with fasted state simulated intestinal fluid (FaSSIF) and quantified by HPLC. Measurement of solubility in FaSSIF provides a valuable model for the prediction of drug dissolution following oral administration.
Preparation of blank FaSSIF: NaOH pellets (174 mg), NaH2PO4.2H2O (2.235 g), and NaCl (3.093 g) were dissolved in 500 mL of water. The pH was adjusted to 6.5 using 1 M NaOH solution.
Preparation of FaSSIF: Sodium taurocholate (165 mg) was dissolved in 25 mL blank FaSSIF. 0.6 mL of a solution containing 100 mg/mL lecithin in methylene chloride was added. The methylene chloride was eliminated under vacuum at about 40° C. The vacuum was drawn for 15 minutes at 250 mbar, followed by 15 minutes at 100 mbar. […] After cooling to room temperature, the solution was then adjusted to 100 mL with blank FaSSIF.
The suspension was equilibrated at 25° C. for 24 hours, and then the pH was measured. The suspension was then filtered through a glass fibre C filter into a 96-well plate. The filtrate was then diluted by a factor of 100. Quantification was made by HPLC with reference to a standard solution of compound at approximately 0.1 mg/mL in DMSO. Different volumes of the standard, diluted and undiluted sample solutions were injected. The solubility was calculated using the peak areas determined by integration of the peak found at the same retention time as the principal peak in the standard injection. Analysis was performed on an Agilent HP1100 series system equipped with a diode array detector and using ChemStation software vB.02.01-SR1.

[2] = Human liver microsomal stability assay; type: in vitro ADME; conditions: pooled human liver microsomes 0.5 mg/mL, test compound 3 μM, 45 minute incubation, NADPH; for half-life at 3 μM: both sexes, pH 7.4
Procedure: as §1
Metabolic stability of APSAP derivatives was measured by determination of the rate of compound disappearance when incubated in the presence of human liver microsomes. Liver microsomes are prepared from the endoplasmic reticulum of hepatocytes and are the primary source of the most important enzymes (cytochrome P450) involved in drug metabolism. Study of drug stability in the presence of liver microsomes is accepted as a valuable model permitting rapid prediction of in vivo drug stability.
Human liver microsomes were obtained from a commercial source. Test compounds (3 μM) were incubated with pooled liver microsomes (male and female). Samples were incubated for a 45 minute period and removed at 5 time points and test compounds were analysed by LC-MS/MS.
The final incubation volume was 25 μL. A control incubation was included for each compound tested, where 0.1 M phosphate buffer pH 7.4 was added instead of NADPH. The control compounds testosterone and 7-hydroxycoumarin were included in each experiment and all incubations were performed singularly for each compound.
Each compound was incubated for 0, 5, 15, 30, and 45 minutes. The control (minus NADPH) was incubated for 45 minutes only. The reactions were stopped by the addition of 50 μL methanol containing internal standard at the appropriate time points. The incubation plates were centrifuged at 2500 rpm for 20 minutes at 4° C. to precipitate the protein.
Following protein precipitation, the sample supernatants were combined in cassettes of up to 4 compounds and analysed using standard LC-MS/MS conditions.
From a plot of the natural logarithm of the peak area ratio (i.e., the ratio of compound peak area:internal standard peak area) against time, the gradient of the line was determined. Subsequently, half-life and intrinsic clearance were calculated using the equations below: Eliminated rate constant(k)=(−gradient). […] Intrinsic Clearance(CLint)([…])=(V×0.693)/t1/2. wherein V=Incubation volume(μL/mg microsomal protein). Pharmacokinetics Studies

[3] = fasted state simulated intestinal fluid (FaSSIF)

Compound O=S(=O)(Nc1cccc(CO)c1)c1ccc(-c2ccc(F)cc2F)cc1 [ABD456, 2′,4′-difluoro-biphenyl-4-sulfonic acid (3-hydroxymethyl-phenyl)-amide, reference compound] has an IC50 (J774 macrophages; Mus musculus) of 250 nM and a solubility at 24 h [1] of 50 µg/mL (≈ 133 µM).
O=S(=O)(Nc1ccc(CO)cc1)c1ccc(-c2ccc(F)cc2F)cc1 [ABD466, 2′,4′-difluoro-biphenyl-4-sulfonic acid (4-hydroxymethyl-phenyl)-amide, reference compound] gave an IC50 (J774 macrophages; Mus musculus) of 3000 nM, a half-life at 3 μM [2] of 2 min and a solubility at 24 h [1] of 40 µg/mL (≈ 107 µM).
Cc1c(CO)cccc1NS(=O)(=O)c1ccc(-c2ccc(F)cc2F)cc1 [ABD527, reference compound] gave a Solubility [1] of 40 µg/mL (≈ 103 µM).
Compound O=S(=O)(Nc1ccc(CO)c(CO)c1)c1ccc(-c2ccc(F)cc2F)cc1 [ABD565, reference compound] has a Solubility [1] of 30 µg/mL (≈ 74 µM).
Compound O=S(=O)(Nc1cccc(CO)c1)c1ccc(-c2ccc(Cl)cc2F)cc1 [ABD575, reference compound] has an IC50 (J774 macrophages) of 400 nM and a Solubility [1] of 70 µg/mL (≈ 179 µM).
O=S(=O)(Nc1cc(CO)ccc1O)c1ccc(-c2ccc(F)cc2F)cc1 [ABD585, reference compound] showed a Solubility [1] of 70 µg/mL (≈ 179 µM).
With O=C(O)c1cccc(NS(=O)(=O)c2ccc(-c3ccc(Cl)cc3Cl)cc2)c1 [ABD612, 3-(2′,4′-Dichlorobiphenyl-4-ylsulfonamido)benzoic acid, reference compound] the T1/2 [2] was “Stable” and the solubility at 24 h [1, 3] was 130 µg/mL (≈ 308 µM).
Compound O=S(=O)(Nc1cccc(CCO)c1)c1ccc(-c2ccc(Cl)cc2Cl)cc1 [ABD625, reference compound] has a T1/2 [2] of 13 min.
Work on O=S(=O)(Nc1cccc(CCO)c1)c1ccc(-c2ccc(F)cc2F)cc1 [ABD628, 2′,4′-difluoro-biphenyl-4-sulfonic acid [3-(2-hydroxy-ethyl)-phenyl]-amide, reference compound] yielded a half-life at 3 μM [2] of 18 min.
With O=S(=O)(Nc1cccc(CCO)c1)c1ccc(-c2ccc(Br)cc2)cc1 [ABD630, reference compound] the T1/2 [2] was 43 min and the Solubility [1] was 60 µg/mL (≈ 139 µM).
Compound CC(C)(O)c1cccc(NS(=O)(=O)c2ccc(-c3ccc(Cl)cc3Cl)cc2)c1 [ABD707, 2′,4′-Dichloro-N-(3-(2-hydroxypropan-2-yl)phenyl)biphenyl-4-sulfonamide] has an IC50 (J774 macrophages; Mus musculus) of 90 nM, a half-life at 3 μM [2] of 12 min and a solubility at 24 h [1, 3] of 140 µg/mL (≈ 321 µM).
CC(O)c1cccc(NS(=O)(=O)c2ccc(-c3ccc(Cl)cc3Cl)cc2)c1 (stereo not shown) [ABD708, 2′,4′-Dichloro-N-(3-(1-hydroxyethyl)phenyl)biphenyl-4-sulfonamide] showed an IC50 (J774 macrophages; Mus musculus) of 180 nM, a half-life at 3 μM [2] of 6 min and a solubility at 24 h [1, 3] of 100 µg/mL (≈ 237 µM).
O=S(=O)(Nc1cccc(C2(O)CC2)c1)c1ccc(-c2ccc(Cl)cc2Cl)cc1 [ABD709, 2′,4′-Dichloro-N-(3-(1-hydroxycyclopropyl)phenyl)biphenyl-4-sulfonamide] showed an IC50 (J774 macrophages; Mus musculus) of 380 nM, a half-life at 3 μM [2] of 18 min and a solubility at 24 h [1, 3] of 70 µg/mL (≈ 161 µM).
CN(C)Cc1cccc(NS(=O)(=O)c2ccc(-c3ccc(Cl)cc3Cl)cc2)c1 [ABD724, 2′,4′-Dichloro-N-(3-((dimethylamino)methyl)phenyl)biphenyl-4-sulfonamide] gave an IC50 (J774 macrophages; Mus musculus) of 300 nM, a half-life at 3 μM [2] of 21 min and a solubility at 24 h [1, 3] of 90 µg/mL (≈ 207 µM).
In the case of CN(C)C(=O)c1cccc(NS(=O)(=O)c2ccc(-c3ccc(Cl)cc3Cl)cc2)c1 [ABD730, 3-(2′,4′-Dichlorobiphenyl-4-ylsulfonamido)-N,N-dimethylbenzamide], the half-life at 3 μM [2] is reported as 15 min and the solubility at 24 h [1, 3] is reported as 20 µg/mL (≈ 44.5 µM).
Work on CC(=O)c1cccc(NS(=O)(=O)c2ccc(-c3ccc(Cl)cc3Cl)cc2)c1 [ABD746, N-(3-Acetylphenyl)-2′,4′-dichlorobiphenyl-4-sulfonamide, reference compound] yielded a half-life at 3 μM [2] of 11 min and a solubility at 24 h [1, 3] of 8 µg/mL (≈ 19 µM).
For NS(=O)(=O)c1cccc(NS(=O)(=O)c2ccc(-c3ccc(Cl)cc3Cl)cc2)c1 [ABD751, 2′,4′-Dichloro-N-(3-sulfamoylphenyl)biphenyl-4-sulfonamide], the IC50 (J774 macrophages; Mus musculus) was 870 nM, the half-life at 3 μM [2] was 46 min and the solubility at 24 h [1, 3] was 40 µg/mL (≈ 87.5 µM).
Compound O=S(=O)(Nc1cccc(C(O)C(F)(F)F)c1)c1ccc(-c2ccc(Cl)cc2Cl)cc1 (stereo not shown) [ABD766, 2′,4′-Dichloro-N-(3-(2,2,2-trifluoro-1-hydroxyethyl)phenyl)biphenyl-4-sulfonamide] has an IC50 (J774 macrophages; Mus musculus) of 710 nM, a half-life at 3 μM [2] of 16 min and a solubility at 24 h [1, 3] of 20 µg/mL (≈ 42 µM).
Compound CN(C)CC(O)c1cccc(NS(=O)(=O)c2ccc(-c3ccc(F)cc3F)cc2)c1 (stereo not shown) [ABD784, N-(3-(2-(Dimethylamino)-1-hydroxyethyl)phenyl)-2′,4′-difluorobiphenyl-4-sulfonamide] has an IC50 (J774 macrophages; Mus musculus) of 1430 nM.
In the case of CN[C@@H](CO)c1cccc(NS(=O)(=O)c2ccc(-c3ccc(F)cc3F)cc2)c1 [ABD810, (R)-2′,4′-Difluoro-N-(3-(2-hydroxy-1-(methylamino)ethyl)phenyl)biphenyl-4-sulfonamide], the IC50 (J774 macrophages; Mus musculus) is reported as 1020 nM.
In the case of CN[C@H](CO)c1cccc(NS(=O)(=O)c2ccc(-c3ccc(F)cc3F)cc2)c1 [ABD811, (S)-2′,4′-Difluoro-N-(3-(2-hydroxy-1-(methylamino)ethyl)phenyl)biphenyl-4-sulfonamide], the IC50 (J774 macrophages; Mus musculus) is reported as 350 nM.
With N[C@@H](CO)c1cccc(NS(=O)(=O)c2ccc(-c3ccc(F)cc3F)cc2)c1 [ABD854, (R)—N-(3-(1-Amino-2-hydroxyethyl)phenyl)-2′,4′-difluorobiphenyl-4-sulfonamide] the IC50 (J774 macrophages; Mus musculus) was 1350 nM.
With CC(N)(CO)c1cccc(NS(=O)(=O)c2ccc(-c3ccc(F)cc3F)cc2)c1 (stereo not shown) [ABD862, N-(3-(2-Amino-1-hydroxypropan-2-yl)phenyl)-2′,4′-difluorobiphenyl-4-sulfonamide] the IC50 (J774 macrophages; Mus musculus) was 2430 nM.

— patent US8207167B2, “Aryl-phenyl-sulfonamide-phenylene compounds and their use” (PIMCO 2664 Limited, priority 2008, dated 2012)
